Literature values in publication PMC10504495 (iScience, 2023).

What was measured:
pan-Kac = settings: cells treated with nicotinamide; cited from earlier work
Excerpt: (§1) Histone deacetylases (HDACs), including HDACs and Sirtuin family proteins, are well studied PTM erasers that regulate gene transcription. Recently, Moreno-Yruela et al. discovered that class I HDACs (HDAC1-3), especially HDAC3, are effective lactylation erasers.[5] […] The authors also treated cells with HDAC inhibitors (butyrate, trichostatin A, and apicidin) and a Sirtuin pan-inhibitor (nicotinamide) to compare the intracellular delactylation activities between HDACs and Sirtu ...

pan-Kla = settings: cells treated with nicotinamide; cited from earlier work
Excerpt: as §1

NC(=O)c1cccnc1 [nicotinamide]
pan-Kac level change (pan-Kac): unchanged
pan-Kla level change (pan-Kla): unable to induce Sirtuin-regulated pan-Kla increasement
